Test results published in patent US20040086901A1, “Database for analyzing gene function and method of analyzing gene function by dspa” (priority 2000, published 2004).

Assays:
Assay type in all cases: cell-based, mouse
[1] = tested on: NIH3T3 cells overexpressing cystatin E; test: MTT cell viability, cystatin E overexpressing cells vs parental line; conditions: cystatin E high-expressing cells / parental cell line, 3 to 4 days
Summary of the method: (§1)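 Stable NIH3T3 transfectants (cDNA in pRc-CMV-type vector, G-418-selected, high expressers picked by Western blot) and parental cells were seeded at 1×10^5 cells/ml into twofold serial drug dilutions and grown 3–4 days. MTT formazan was read at 574/655 nm, and log ratios of IC40 values were derived.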

[2] = tested on: NIH3T3 cells overexpressing HNF1; test: MTT cell viability, HNF1 overexpressing cells vs parental line; conditions: HNF1 high-expressing cells / parental cell line, 3 to 4 days
Summary of the method: (§2)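 Drugs were serially diluted twofold across nine wells. Cells were then added from a suspension of 1×10^5 cells/ml and cultured for 3 to 4 days. After a 4 h MTT incubation at 37 °C and acid-isopropanol solubilisation, formazan was measured at 574 nm and IC40 ratios were derived.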

[3] = tested on: NIH3T3 cells overexpressing CaMKIIa; test: MTT cell viability, CaMKIIa overexpressing cells vs parental line; conditions: CaMKIIa high-expressing cells / parental cell line, 3 to 4 days
Summary of the method: as §2

[4] = tested on: NIH3T3 cells overexpressing PKCalpha-KN; test: MTT cell viability, PKCalpha-KN overexpressing cells vs parental line; conditions: 3 to 4 days
Summary of the method: as §2

[5] = tested on: NIH3T3 cells overexpressing PKCepsilon-KN; test: MTT cell viability, PKCepsilon-KN overexpressing cells vs parental line; conditions: 3 to 4 days
Summary of the method: as §2

[6] = tested on: NIH3T3 cells overexpressing p16/INK4A; test: MTT cell viability, p16/INK4A overexpressing cells vs parental line; conditions: p16/INK4A high-expressing cells / parental cell line, 3 to 4 days
Summary of the method: as §1

[7] = tested on: NIH3T3 cells, TPA (PKC downreg); test: MTT cell viability, TPA (PKC downreg) cells vs parental line; conditions: 3 to 4 days
[8] = tested on: NIH3T3 cells overexpressing Ha-ras; test: MTT cell viability, drug sensitivity of Ha-ras overexpressing cells vs parental line; conditions: Ha-ras high-expressing cells / parental cell line, 3 to 4 days
Summary of the method: as §2

[9] = tested on: NIH3T3 cells overexpressing Bax; test: MTT cell viability, Bax overexpressing cells vs parental line; conditions: 3 to 4 days
Summary of the method: as §2

[10] = tested on: NIH3T3 cells overexpressing HSP4O; test: MTT cell viability, HSP4O overexpressing cells vs parental line; conditions: HSP4O high-expressing cells / parental cell line, 3 to 4 days
Summary of the method: as §1

[11] = tested on: NIH3T3 cells overexpressing DAN; test: MTT cell viability, DAN overexpressing cells vs parental line; conditions: DAN high-expressing cells / parental cell line, 3 to 4 days
Summary of the method: as §1

[12] = tested on: NIH3T3 cells overexpressing RhoA; test: MTT cell viability, RhoA overexpressing cells vs parental line; conditions: RhoA high-expressing cells / parental cell line, 3 to 4 days
Summary of the method: as §1

[13] = tested on: NIH3T3 cells overexpressing TK; test: MTT cell viability, TK overexpressing cells vs parental line; conditions: TK high-expressing cells / parental cell line, 3 to 4 days
Summary of the method: as §1

[14] = tested on: NIH3T3 cells overexpressing caspase-3; test: MTT cell viability, caspase-3 overexpressing cells vs parental line; conditions: caspase-3 high-expressing cells / parental cell line, 3 to 4 days
Summary of the method: as §2

[15] = tested on: NIH3T3 cells overexpressing v-src; test: MTT cell viability, v-src overexpressing cells vs parental line; conditions: v-src high-expressing cells / parental cell line, 3 to 4 days
Summary of the method: as §1

[16] = tested on: NIH3T3 cells overexpressing p38-DN; test: MTT cell viability, p38-DN overexpressing cells vs parental line; conditions: p38-DN high-expressing cells / parental cell line, 3 to 4 days
Summary of the method: as §2

[17] = tested on: NIH3T3 cells overexpressing HNF4; test: MTT cell viability, HNF4 overexpressing cells vs parental line; conditions: HNF4 high-expressing cells / parental cell line, 3 to 4 days
Summary of the method: as §2

[18] = tested on: NIH3T3 cells overexpressing PDGF-R-Del; test: MTT cell viability, PDGF-R-Del overexpressing cells vs parental line; conditions: PDGF-R-Del high-expressing cells / parental cell line, 3 to 4 days
Summary of the method: as §1

[19] = tested on: NIH3T3 cells overexpressing Regucalcin; test: MTT cell viability, Regucalcin overexpressing cells vs parental line; conditions: Regucalcin high-expressing cells / parental cell line, 3 to 4 days
Summary of the method: as §1

[20] = PKCalpha-KN (first of two lines) high-expressing cells / parental cell line
[21] = PKCalpha-KN (second of two lines) high-expressing cells / parental cell line
[22] = PKCepsilon-KN (first of two lines) high-expressing cells / parental cell line
[23] = PKCepsilon-KN (second of two lines) high-expressing cells / parental cell line
[24] = Bax (first of two Bax lines) high-expressing cells / parental cell line
[25] = Bax (second of two Bax lines) high-expressing cells / parental cell line

Row | Molecule | logarithmic value of ratio of IC40 values [1] | logarithmic value of ratio of IC40 values [2] | logarithmic value of ratio of IC40 values [3] | logarithmic value of ratio of IC40 values [4, 21] | logarithmic value of ratio of IC40 values [5, 22] | logarithmic value of ratio of IC40 values [5, 23] | logarithmic value of ratio of IC40 values [6] | logarithmic value of ratio of IC40 values [7] | logarithmic value of ratio of IC40 values [8] | logarithmic value of ratio of IC40 values [9, 24] | logarithmic value of ratio of IC40 values [9, 25] | logarithmic value of ratio of IC40 values [10] | logarithmic value of ratio of IC40 values [11] | logarithmic value of ratio of IC40 values [12] | logarithmic value of ratio of IC40 values [13] | logarithmic value of ratio of IC40 values [14] | logarithmic value of ratio of IC40 values [15] | logarithmic value of ratio of IC40 values [16] | logarithmic value of ratio of IC40 values [17] | logarithmic value of ratio of IC40 values [18] | further results
1 | COc1ccc2c(c1)CC[C@@H]1[C@@H]2CC[C@]2(C)[C@@H](NCCCCCCN3C(=O)C=CC3=O)CC[C@@H]12 [U73122] | −0.07 | 0.07 | −0.05 | −0.97 | −0.21 | −0.38 | 0.28 | −0.12 | −0.19 | 0.00 | 0.00 | −0.20 | 0.36 | 0.12 | 0.00 | 0.53 | −0.59 | 0.00 | 0.00 | 0.00 | logarithmic value of ratio of IC40 values [4, 20]: −0.33; logarithmic value of ratio of IC40 values [19]: −0.66
2 | CNc1ccc2oc(C[C@H]3O[C@@]4(CC[C@H]3C)O[C@H]([C@H](C)C(=O)c3ccc[nH]3)[C@H](C)C[C@H]4C)nc2c1C(=O)O [A23187] | 0.22 | 0.35 | 0.00 | −0.05 | −0.28 | 0.15 | 0.00 | −0.22 | −0.28 | 0.00 | −0.09 | −0.16 | 0.40 | 0.26 | 0.00 | 0.28 | −0.19 | −0.12 | 0.19 | 0.15 | logarithmic value of ratio of IC40 values [4, 20]: 0.22; logarithmic value of ratio of IC40 values [19]: 0.03
3 | ICE inhibitor-III [ICEin-3] | 0.07 | 0.20 | 0.00 | 0.33 | −0.21 | 0.33 | 0.15 | −0.09 | 0.32 | −0.12 | 0.00 | 0.11 | 0.00 | 0.19 | −0.15 | 0.13 | −0.14 | −0.11 | 0.00 | 0.00 | logarithmic value of ratio of IC40 values [4, 20]: 0.12; logarithmic value of ratio of IC40 values [19]: 0.00
4 | O=CN/C=C/c1cc(O)ccc1O [Erbstatin, erbstatin] | −0.06 | 0.391 | 0.14 | 0.00 | −0.12 | 0.00 | 0.51 | 0.00 | 0.08 | 0.27 | 0.04 | 0.00 | 0.20 | 0.14 | 0.05 | −0.10 | −0.05 | 0.06 | 2.00 | 0.00 | logarithmic value of ratio of IC40 values [19]: 0.00
5 | CO[C@H]1[C@@H](OC)C[C@H](C)[C@@H](OC)C2=CC(=O)C=C(NC(=O)/C(C)=C/C=C\[C@H](OC)[C@@H](OC(N)=O)/C(C)=C/[C@@H]1C)C2=O [HMA, herbimycin A] | 0.00 | 0.161 | 0.00 | −0.10 | −0.11 | 0.09 | 0.41 | −0.07 | −0.35 | −0.05 | 0.15 | 0.00 | −0.05 | 0.13 | 0.00 | 0.08 | −0.35 | −0.05 | −0.08 | 0.00 | logarithmic value of ratio of IC40 values [4, 20]: 0.09; logarithmic value of ratio of IC40 values [19]: −0.20
6 | C=C1[C@@H](O)[C@@H]2O[C@]3(CC[C@H](/C=C/[C@@H](C)[C@@H]4CC(C)=C[C@@]5(O[C@H](C[C@@](C)(O)C(=O)O)CC[C@H]5O)O4)O3)CC[C@H]2O[C@@H]1[C@@H](O)C[C@H](C)[C@H]1O[C@@]2(CCCCO2)CC[C@H]1C [OA, okadaic acid] | −0.52 | 0 | 0.00 | 0.00 | 0.00 | 0.00 | 0.06 | 0.12 | 0.11 | 0.00 | 0.00 | −0.02 | 0.04 | 0.00 | 0.00 | 0.00 | 0.18 | 0.12 | 0.08 | 0.21 | logarithmic value of ratio of IC40 values [4, 20]: 0.09; logarithmic value of ratio of IC40 values [19]: −0.10
